Experiments:
[1] = test system: human cervical tumor cell line HeLa (ATCC CCL-2); assay: SAC-Formation - Nocodazole-Induced Assay; type: cell-based; conditions: 24 h, HeLa cells, nocodazole 0.1 μg/ml together with test compound, decrease of mitotic cells (phospho-histone H3 Ser10)
In short: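 Loss of phospho-histone H3 Ser10-positive cells, counted against Hoechst-stained nuclei by high-content imaging, marked mitotic breakthrough. Compounds (0.005–20 μM, 0.5% DMSO) were co-dosed with 0.1 μg/ml nocodazole onto HeLa cells for 24 h at 37 °C. Curves were fitted with a four-parameter Hill equation.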

[2] = test system: human cervical tumor cell line HeLa (ATCC CCL-2); assay: SAC-Formation - Paclitaxel-Induced Assay; type: cell-based; conditions: 24 h, HeLa cells, paclitaxel 0.05 μM, test range 0.005 μM-20 μM, read-out: IC50 [mol/l] SAC-Formation - Paclitaxel-Induced Assay
In short: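 Read-out is high-content imaging of anti-phospho-H3 Ser10 (mitosis) and Hoechst 33342 (DNA, cell number), with decreased mitotic fraction marking checkpoint breakthrough. Compounds (0.005–20 μM) and 0.05 μM paclitaxel co-added to overnight-plated HeLa for 24 h at 37° C; four-parameter Hill fit.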

SMILES | IC50 ([1]; Homo sapiens, HeLa) | IC50 ([2]; Homo sapiens, HeLa) | IC50 [1] | IC50 [2]
Cc1nsc(Nc2cnc(C(F)(F)F)cn2)c1C(=O)Nc1ccc(C(=O)NC2CCN(CC(F)(F)F)CC2)cc1 [Example 165, 3-methyl-N-(4-{[1-(2,2,2-trifluoroethyl)piperidin-4-yl]carbamoyl}phenyl)-5-{[5-(trifluoromethyl)pyrazin-2-yl]amino}-1,2-thiazole-4-carboxamide] | 240 nM | 590 nM |  | 
Cc1nsc(Nc2cnc(C(F)(F)F)cn2)c1C(=O)Nc1ccc(F)c(OCC2CCCN(CC(F)F)C2)c1 (centres unmarked) [Example 335, N-(3-{[1-(2,2-difluoroethyl)piperidin-3-yl]methoxy}-4-fluorophenyl)-3-methyl-5-{[5-(trifluoromethyl)pyrazin-2-yl]amino}-1,2-thiazole-4-carboxamide] |  |  | 55 nM | 98 nM
COc1ccc(NC(=O)c2c(C)nsc2Nc2ccc(C#N)cn2)c(N2CCOCC2)n1 [Example 173, 5-[(5-cyanopyridin-2-yl)amino]-N-[6-methoxy-2-(morpholin-4-yl)pyridin-3-yl]-3-methyl-1,2-thiazole-4-carboxamide] | 1900 nM | 6700 nM |  | 
Cc1nsc(Nc2cnc(C(F)(F)F)cn2)c1C(=O)Nc1ccc(OC2CCN(CC(F)F)CC2)nc1 [Example 8, N-(6-{[1-(2,2-Difluoroethyl)piperidin-4-yl]oxy}pyridin-3-yl)-3-methyl-5-{[5-(trifluoromethyl)pyrazin-2-yl]amino}-1,2-thiazole-4-carboxamide] | 1500 nM | 1500 nM |  | 
Cc1nsc(Nc2cnc3cc(F)ccc3n2)c1C(=O)Nc1ccc(S(N)(=O)=O)cc1 [Example 149, 5-[(6-fluoroquinoxalin-2-yl)amino]-3-methyl-N-(4-sulfamoylphenyl)-1,2-thiazole-4-carboxamide] | 470 nM | 1600 nM |  | 
Cc1nsc(Nc2cnc(C(F)(F)F)cn2)c1C(=O)Nc1ccc(OC2CCN(C(C)C)CC2)nc1 [Example 160, N-{6-[(1-isopropylpiperidin-4-yl)oxy]pyridin-3-yl}-3-methyl-5-{[5-(trifluoromethyl)pyrazin-2-yl]amino}-1,2-thiazole-4-carboxamide] | 2000 nM | 3600 nM |  | 
Cc1nsc(Nc2cncc(C(F)(F)F)n2)c1C(=O)Nc1ccc(OC2CCN(C(=O)OC(C)(C)C)CC2)nc1 [Example 12, tert-Butyl 4-[(5-{[(3-methyl-5-{[6-(trifluoromethyl)pyrazin-2-yl]amino}-1,2-thiazol-4-yl)carbonyl]amino}pyridin-2-yl)oxy]piperidine-1-carboxylate] | 220 nM | 230 nM |  | 
Cc1nsc(Nc2cnc(C(F)(F)F)cn2)c1C(=O)Nc1ccc(OC[C@@H]2CCCN(CCC(F)(F)F)C2)nc1 [Example 422, 3-Methyl-5-{[5-(trifluoromethyl)pyrazin-2-yl]amino}-N-(6-{[(3R)-1-(3,3,3-trifluoropropyl)piperidin-3-yl]methoxy}pyridin-3-yl)-1,2-thiazole-4-carboxamide] |  |  | 40 nM | 88 nM
Cc1nsc(Nc2cc(C#N)ccn2)c1C(=O)Nc1ccc(Oc2cccnc2)nc1 [Example 119, 5-[(4-Cyanopyridin-2-yl)amino]-3-methyl-N-[6-(pyridin-3-yloxy)pyridin-3-yl]-1,2-thiazole-4-carboxamide] | 4500 nM | 20000 nM |  | 
Cc1nsc(Nc2cnc(C(F)(F)F)cn2)c1C(=O)Nc1ccc(F)c(C(N)=O)c1 [Example 151, N-(3-carbamoyl-4-fluorophenyl)-3-methyl-5-{[5-(trifluoromethyl)pyrazin-2-yl]amino}-1,2-thiazole-4-carboxamide] | 290 nM | 1300 nM |  | 
CNS(=O)(=O)c1ccc(NC(=O)c2c(C)nsc2Nc2cnc3ccccc3n2)cc1 [Example 111, 3-Methyl-N-[4-(methylsulfannoyl)phenyl]-5-(quinoxalin-2-ylamino)-1,2-thiazole-4-carboxamide] | 110 nM | 130 nM |  | 
Cc1nsc(Nc2cnc3ccccc3n2)c1C(=O)Nc1cccc(C(=O)N[C@H](C(=O)O)[C@@H](C)O)c1 [Example 105, N-[3-({[3-methyl-5-(quinoxalin-2-ylamino)-1,2-thiazol-4-yl]carbonyl}amino)-benzoyl]threonine] | 20000 nM | 20000 nM |  | 
Cc1nsc(Nc2cnc3ccccc3n2)c1C(=O)Nc1ccc(C(=O)NC2CN(C(=O)OC(C)(C)C)CC(F)(F)C2)cc1 (centres unmarked) [Example 158, tert-butyl 3,3-difluoro-5-{[4-({[3-methyl-5-(quinoxalin-2-ylamino)-1,2-thiazol-4-yl]carbonyl}amino)benzoyl]amino} piperidine-1-carboxylate] | 240 nM | 2800 nM |  | 
Cc1nsc(Nc2cnc(C(F)(F)F)cn2)c1C(=O)Nc1ccc(O[C@@H]2CCN(CC(F)(F)F)C2)nc1 [Example 421, 3-Methyl-N-(6-{[(3R)-1-(2,2,2-trifluoroethyl)pyrrolidin-3-yl]oxy}pyridin-3-yl)-5-{[5-(trifluoromethyl)pyrazin-2-yl]amino}-1,2-thiazole-4-carboxamide] |  |  | 340 nM | 330 nM

More lines, in order of falling IC50 ([1]; Homo sapiens, HeLa), values ahead:

IC50 ([1]; Homo sapiens, HeLa) | IC50 ([2]; Homo sapiens, HeLa) | IC50 [1] | IC50 [2] | SMILES
110 nM | 170 nM |  |  | Cc1nsc(Nc2cnc(C(F)(F)F)cn2)c1C(=O)Nc1ccc(O[C@@H]2CCN(CC(F)(F)F)C[C@@H]2F)nc1 [Example 138, N-(6-{[(3S,4R)-3-fluoro-1-(2,2,2-trifluoroethyl)piperidin-4-yl]oxy}pyridin-3-yl)-3-methyl-5-{[5-(trifluoromethyl)pyrazin-2-yl]amino}-1,2-thiazole-4-carboxamide]
91 nM | 340 nM |  |  | Cc1nsc(Nc2cncc(C(F)(F)F)n2)c1C(=O)Nc1ccc(C(=O)NC2CCN(CC(F)(F)F)CC2)cc1 [Example 167, 3-methyl-N-(4-{[1-(2,2,2-trifluoroethyl)piperidin-4-yl]carbamoyl}phenyl)-5-{[6-(trifluoromethyl)pyrazin-2-yl]amino}-1,2-thiazole-4-carboxamide]
52 nM | 170 nM |  |  | Cc1nsc(Nc2cncc(C(F)(F)F)n2)c1C(=O)Nc1ccc(OCC2CCCN(C(=O)OC(C)(C)C)C2)nc1 (centres unmarked) [Example 166, tert-butyl 3-{[(5-{[(3-methyl-5-{[6-(trifluoromethyl)pyrazin-2-yl]amino}-1,2-thiazol-4-yl)carbonyl]amino}pyridin-2-yl)oxy]methyl}piperidine-1-carboxylate]
36 nM | 94 nM |  |  | Cc1nsc(Nc2cnc(C(F)(F)F)cn2)c1C(=O)Nc1ccc(O[C@H]2CCN(CC(F)F)C[C@H]2F)nc1 [Example 144, N-(6-{[(3R,4S)-1-(2,2-difluoroethyl)-3-fluoropiperidin-4-yl]oxy}pyridin-3-yl)-3-methyl-5-{[5-(trifluoromethyl)pyrazin-2-yl]amino}-1,2-thiazole-4-carboxamide]
32 nM | 84 nM |  |  | Cc1nsc(Nc2cnc(C(F)(F)F)cn2)c1C(=O)Nc1ccc(OC[C@@H]2CCN(CCC(F)(F)F)C2)nc1 [Example 129, 3-Methyl-5-{[5-(trifluoromethyl)pyrazin-2-yl]amino}-N-(6-{[(3R)-1-(3,3,3-trifluoropropyl)pyrrolidin-3-yl]methoxy}pyridin-3-yl)-1,2-thiazole-4-carboxamide]
24 nM | 38 nM |  |  | Cc1nsc(Nc2cnc(C(F)(F)F)cn2)c1C(=O)Nc1ccc(OCC2CCN(CCC(F)(F)F)C2)nc1 (centres unmarked) [Example 124, 3-methyl-5-{[5-(trifluoromethyl)pyrazin-2-yl]amino}-N-(6-{[1-(3,3,3-trifluoropropyl)pyrrolidin-3-yl]methoxy}pyridin-3-yl)-1,2-thiazole-4-carboxamide]
24 nM | 20000 nM |  |  | Cc1nsc(Nc2cnc(C(F)(F)F)cn2)c1C(=O)Nc1ccc(C(=O)O)cc1 [Example 97, 4-{[(3-Methyl-5-{[5-(trifluoromethyl)pyrazin-2-yl]amino}-1,2-thiazol-4-yl)carbony]-amino}benzoic acid]
15 nM | 70 nM |  |  | Cc1nsc(Nc2cnc(C(F)(F)F)cn2)c1C(=O)Nc1ccc(OC[C@@H]2CCN(CC(F)(F)F)C2)nc1 [Example 128, 3-Methyl-N-(6-{[(3R)-1-(2,2,2-trifluoroethyl)pyrrolidin-3-yl]methoxy}pyridin-3-yl)-5-{[5-(trifluoromethyl)pyrazin-2-yl]amino}-1,2-thiazole-4-carboxamide]
11 nM | 210 nM |  |  | Cc1nsc(Nc2cnc3ccccc3n2)c1C(=O)Nc1cccc(-c2nnc(C(C)(C)C)o2)c1 [Example 107, N-[3-(5-tert-Butyl-1,3,4-oxadiazol-2-yl)phenyl]-3-methyl-5-(quinoxalin-2-ylamino)-1,2-thiazole-4-carboxamide]
5.9 nM | 30 nM |  |  | CCCN1CC[C@H](Oc2ccc(NC(=O)c3c(C)nsc3Nc3cnc(C(F)(F)F)cn3)cn2)[C@H](F)C1 [Example 147, N-(6-{[(3R,4S)-3-fluoro-1-propylpiperidin-4-yl]oxy}pyridin-3-yl)-3-methyl-5-{[5-(trifluoromethyl)pyrazin-2-yl]amino}-1,2-thiazole-4-carboxamide]
1.8 nM | 39 nM |  |  | Cc1nsc(Nc2cnc(C(F)(F)F)cn2)c1C(=O)Nc1ccc(C(=O)OC(C)(C)C)cc1 [Example 96, tert-Butyl 4-{[(3-methyl-5-{[5-(trifluoromethyl)pyrazin-2-yl]amino}-1,2-thiazol-4-yl)carbonyl]amino}benzoate]

Reference: US20170334899A1, “AMINO-SUBSTITUTED ISOTHIAZOLES” (Bayer Pharma Aktiengesellschaft, priority 2014, published 2017)
